These results are taken from publication PMC9431551, “Isolation of the Thermostable β-Glucosidase-Secreting Strain Bacillus altitudinis JYY-02 and Its Application in the Production of Gardenia Blue” (Microbiology Spectrum, 2022).

The structures appear in SMILES notation.

Broadly, the Km is the concentration of substrate that gives half-maximal velocity.

In the test the test system is T1, recombinant β-glucosidase of B. altitudinis JYY-02 (bgl).
T1 construct: full-length ORF 1,467 bp, 488 residues, N-terminus MTTIKG from forward primer; E. coli BL21(DE3); 54 kDa
The test is described as follows: p-nitrophenol release at […] nm, Lineweaver-Burk plot. Format: biochemical, Bacillus altitudinis. The following applies: citrate-disodium hydrogen phosphate buffer 0.2 M, pH 5.6, 55°C (standard assay); abstract prints 0.331 mM.

As for `O=[N+]([O-])c1ccc(O[C@@H]2O[C@H](CO)[C@@H](O)[C@H](O)[C@H]2O)cc1` [p-nitrophenyl-β-D-glucopyranoside], the Km turned out to be 332 µM.
